Results published in patent US20140350050A1, “PYRIDINE COMPOUNDS AS INHIBITORS OF KINASE” (TELIGENE LTD., priority 2011, published 2014).
Like-named read-outs stand apart in the source and are kept apart here.

Assays:
[1] = target: T1, BAF3-EML4-ALK stable cell line (Homo sapiens, UniProt Q9UM73); assay: BAF3-EML4-ALK cell assay (MTT cell proliferation); assay type: cell-based; conditions: 72 hours, read-out: BAF3-EML4-ALK Cell (IC50 grading)
T1 construct: fused on or other part: Q9HC35 (Echinoderm microtubule-associated protein-like 4)
T1 sequence (Q9UM73 whole entry, change not shown, the tested form may be a part): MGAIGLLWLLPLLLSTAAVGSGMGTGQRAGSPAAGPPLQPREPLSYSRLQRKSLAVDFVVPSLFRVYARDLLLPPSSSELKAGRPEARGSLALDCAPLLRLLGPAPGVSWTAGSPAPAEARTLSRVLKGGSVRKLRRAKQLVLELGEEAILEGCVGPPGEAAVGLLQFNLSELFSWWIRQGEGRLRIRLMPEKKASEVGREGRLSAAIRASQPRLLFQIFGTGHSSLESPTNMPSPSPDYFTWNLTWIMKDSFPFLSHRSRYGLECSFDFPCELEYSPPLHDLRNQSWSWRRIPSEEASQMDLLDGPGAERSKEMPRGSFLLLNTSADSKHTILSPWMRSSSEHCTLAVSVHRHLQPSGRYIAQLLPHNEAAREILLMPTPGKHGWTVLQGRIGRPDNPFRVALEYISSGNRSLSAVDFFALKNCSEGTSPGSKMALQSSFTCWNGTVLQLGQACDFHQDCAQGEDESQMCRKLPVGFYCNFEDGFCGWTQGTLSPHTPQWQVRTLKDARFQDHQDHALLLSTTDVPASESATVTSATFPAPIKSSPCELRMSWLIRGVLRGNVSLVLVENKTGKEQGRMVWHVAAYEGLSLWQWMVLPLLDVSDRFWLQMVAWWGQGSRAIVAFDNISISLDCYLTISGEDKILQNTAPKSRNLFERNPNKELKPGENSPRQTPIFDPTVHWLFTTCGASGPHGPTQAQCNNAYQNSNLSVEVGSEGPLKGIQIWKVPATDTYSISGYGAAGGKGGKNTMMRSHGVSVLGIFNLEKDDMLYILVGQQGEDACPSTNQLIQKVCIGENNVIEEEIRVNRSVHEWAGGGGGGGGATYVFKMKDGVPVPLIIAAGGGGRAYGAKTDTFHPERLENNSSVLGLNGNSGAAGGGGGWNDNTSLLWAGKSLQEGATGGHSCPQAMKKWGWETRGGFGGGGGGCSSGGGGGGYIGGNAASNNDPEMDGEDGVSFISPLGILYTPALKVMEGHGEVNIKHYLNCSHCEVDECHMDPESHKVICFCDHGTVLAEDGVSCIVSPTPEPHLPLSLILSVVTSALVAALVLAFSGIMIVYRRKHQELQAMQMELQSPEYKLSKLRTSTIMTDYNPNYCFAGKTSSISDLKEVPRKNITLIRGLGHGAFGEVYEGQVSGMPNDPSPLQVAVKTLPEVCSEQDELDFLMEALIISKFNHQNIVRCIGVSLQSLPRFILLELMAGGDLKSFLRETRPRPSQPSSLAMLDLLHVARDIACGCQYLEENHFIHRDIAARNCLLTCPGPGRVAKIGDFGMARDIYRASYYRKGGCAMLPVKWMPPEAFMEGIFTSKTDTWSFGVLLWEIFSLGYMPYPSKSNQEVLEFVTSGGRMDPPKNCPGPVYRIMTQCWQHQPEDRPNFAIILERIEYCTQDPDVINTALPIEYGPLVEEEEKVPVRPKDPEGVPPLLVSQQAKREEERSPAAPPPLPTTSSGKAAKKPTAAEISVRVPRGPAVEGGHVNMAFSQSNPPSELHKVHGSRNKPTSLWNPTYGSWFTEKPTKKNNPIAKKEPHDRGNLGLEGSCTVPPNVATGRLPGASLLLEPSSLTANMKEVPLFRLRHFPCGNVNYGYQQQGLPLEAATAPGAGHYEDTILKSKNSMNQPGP
Method: BAF3-EML4-ALK Cell Assay:
A method of establishing BAF3-EML4-ALK stable cell line: Transfer 5×10^6 BAF3 cells to a new tube, pellet the cells, and remove PBS by aspiration.; Resuspend the cells in 1 ml electroporation buffer, this provides 5×10^6 of cells; Transfer 200 μl of cell suspension to EP tube, add 5 ug DNA, flip and place it on ice for 10 min; Pipet the 200 μl cell suspension into 2 mm electroporation cuvette; Place the cuvette into shockpod, close the lid, and press the PULSE button; Set parameters: Expentional decay pulse: VOL=200 V; CAP=900 uF, RES=1000Ω; Transfer all cells from electroporation cuvette to 6 well plate, adding 2 ml DMEMF12 containing 5 ng/ml IL3, 24 h later, replace the medium with DMEM F12 containing 2 μg/ml blasticidin S and 5 ng/ml IL3, maintain for 3 days; change the medium with DMEM F12 containing 2 ug/ml blasticidin S and 2.5 ng/ml IL3, maintain 3 days; change the medium with DMEM F12 containing 2 ug/Ml blasticidin S, maintain to culture.
MTT Cell proliferation assay: 5×10^3 per well cell with 100 μl medium was seeded in 96-well plate; 24 hours later, 100 μl fresh medium with various concentration of compounds; After the cells were treated by compounds for 72 hours, add 20 μl MTT (5 mg/ml) into each wells; The plate is incubated at 37° C. for 4 hours; Centrifuge the plate at 800 g for 10 mins, Aspirated the medium, add 150 μl DMSO into each well. Shake plates gently for 10 mins, Measure the absorbance at 570 nm on plate reader; IR=(WC−WT)/WC.

ALK kinase = ALK kinase (Homo sapiens, UniProt Q9UM73); assay: ALK kinase assay; assay type: biochemical
Sequence of ALK kinase (Q9UM73 19-1620): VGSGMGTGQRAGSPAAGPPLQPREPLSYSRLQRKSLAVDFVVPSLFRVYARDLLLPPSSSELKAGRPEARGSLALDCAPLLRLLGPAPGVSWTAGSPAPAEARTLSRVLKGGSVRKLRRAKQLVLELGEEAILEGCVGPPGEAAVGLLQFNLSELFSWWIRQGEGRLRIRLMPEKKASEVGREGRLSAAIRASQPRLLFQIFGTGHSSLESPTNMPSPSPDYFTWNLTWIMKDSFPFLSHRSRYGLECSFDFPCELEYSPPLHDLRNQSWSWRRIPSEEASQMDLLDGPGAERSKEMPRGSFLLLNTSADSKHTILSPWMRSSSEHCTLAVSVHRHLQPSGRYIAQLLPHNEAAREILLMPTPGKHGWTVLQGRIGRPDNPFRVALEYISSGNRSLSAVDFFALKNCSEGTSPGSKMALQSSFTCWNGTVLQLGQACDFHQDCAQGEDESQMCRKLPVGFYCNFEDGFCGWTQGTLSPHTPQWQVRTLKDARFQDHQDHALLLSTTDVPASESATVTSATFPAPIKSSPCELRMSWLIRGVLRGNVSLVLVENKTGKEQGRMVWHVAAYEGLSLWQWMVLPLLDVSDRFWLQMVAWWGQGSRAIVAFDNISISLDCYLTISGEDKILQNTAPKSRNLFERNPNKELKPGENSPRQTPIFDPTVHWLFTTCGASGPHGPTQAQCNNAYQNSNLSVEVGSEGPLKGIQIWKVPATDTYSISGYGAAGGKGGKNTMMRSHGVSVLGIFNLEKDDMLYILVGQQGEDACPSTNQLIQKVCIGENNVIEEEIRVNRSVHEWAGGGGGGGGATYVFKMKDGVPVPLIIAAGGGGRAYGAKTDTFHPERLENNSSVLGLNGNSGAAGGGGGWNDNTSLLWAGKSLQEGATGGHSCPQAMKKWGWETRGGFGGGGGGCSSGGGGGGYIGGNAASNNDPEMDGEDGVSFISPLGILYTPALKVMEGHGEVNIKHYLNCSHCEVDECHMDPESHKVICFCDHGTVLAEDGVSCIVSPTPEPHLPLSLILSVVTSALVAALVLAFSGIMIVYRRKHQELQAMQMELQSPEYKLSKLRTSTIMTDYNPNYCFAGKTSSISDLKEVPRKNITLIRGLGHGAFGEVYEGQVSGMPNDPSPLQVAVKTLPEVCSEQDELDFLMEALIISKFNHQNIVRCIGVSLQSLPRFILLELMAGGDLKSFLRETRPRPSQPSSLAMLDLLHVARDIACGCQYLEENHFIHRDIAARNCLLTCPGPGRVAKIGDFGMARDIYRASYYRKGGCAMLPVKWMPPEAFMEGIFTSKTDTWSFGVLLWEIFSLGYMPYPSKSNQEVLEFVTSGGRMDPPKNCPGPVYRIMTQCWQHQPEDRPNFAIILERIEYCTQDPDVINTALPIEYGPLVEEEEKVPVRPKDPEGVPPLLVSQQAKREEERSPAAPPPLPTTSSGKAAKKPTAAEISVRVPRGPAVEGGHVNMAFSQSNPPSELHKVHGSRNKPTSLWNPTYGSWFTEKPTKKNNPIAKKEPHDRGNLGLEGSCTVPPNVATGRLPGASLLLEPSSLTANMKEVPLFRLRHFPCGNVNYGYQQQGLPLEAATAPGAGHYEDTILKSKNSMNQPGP
Method: An in vitro assay which determines the ability of a test compound to inhibit ALK kinase. a) kinase-tagged T7 phage strains were prepared in an E. coli host derived from the BL21 strain. E. coli were grown to log-phase and infected with T7 phage and incubated with shaking at 32° C. until lysis. The lysates were centrifuged and filtered to remove cell debris. The remaining kinases were produced in HEK-293 cells and subsequently tagged with DNA for qPCR detection. […] The liganded beads were blocked with excess biotin and washed with blocking buffer (SeaBlock (Pierce), 1% BSA, 0.05% Tween 20, 1 mM DTT) to remove unbound ligand and to reduce non-specific binding. […] All reactions were performed in polystyrene 96-well plates in a final volume of 0.135 ml. […] The kinase concentration in the eluates was measured by qPCR. […]
b) An alternative method to conduct the kinase assay with the following condition and procedure: Reagent: Base Reaction buffer; 20 mM Hepes (pH 7.5), 10 mM MgCl2, 1 mM EGTA, 0.02% Brij35, 0.02 mg/ml BSA, 0.1 mM Na3VO4, 2 mM DTT, 1% DMSO.
1. Preparing indicated substrate in freshly prepared Base Reaction Buffer
2. Delivering any required cofactors to the substrate solution above
3. Delivering indicated kinase into the substrate solution and gently mix
4. Delivering compounds in DMSO into the kinase reaction mixture
5. Delivering ^33P-ATP (specific activity 0.01 μCi/μl final) into the reaction mixture to initiate the reaction.
6. Incubating kinase reaction for 120 min. at room temperature
7. Reactions are spotted onto P81 ion exchange paper (Whatman #3698-915)
8. Washing filters extensively in 0.75% Phosphoric acid. […]
c) An alternative method to conduct the kinase assay with the following condition and procedure: The assay was performed using Kinase-Glo Plus luminescence kinase assay kit (Promega). It measures kinase activity by quantitating the amount of ATP remaining in solution following a kinase reaction. The luminescent signal from the assay is correlated with the amount of ATP present and is inversely correlated with the amount of kinase activity.
The compound were diluted in 10% DMSO and 5 μl of the dilution was added to a 50 μl reaction so that the final concentration of DMSO is 1% in all of reactions. All of the enzymatic reactions were conducted at 30° C. for 40 minutes. The 50 μl reaction mixture contains 40 mM Tris, pH 7.4, 10 mM MgCl2, 0.1 mg/ml BSA, 1 mM DTT, 0.2 mg/ml substrate peptide, 10 μM ATP and ALK (Table 2.3.1). After the enzymatic reaction, 50 μl of Kinase-Glo Plus Luminescence kinase assay solution (Promega) was added to each reaction and incubate the plate for 5 minutes at room temperature. Luminescence signal was measured using a BioTek Synergy 2 microplate reader. ALK activity assays were performed in duplicate at each concentration. The luminescence data were analyzed using the computer software, Graphpad Prism. The difference between luminescence intensities in the absence of ALK (Lut) and in the presence of ALK (Luc) was defined as 100% activity (Lut−Luc). Using luminescence signal (Lu) in the presence of the compound, % activity was calculated as % activity={(Lut−Lu)/(Lut−Luc)}×100%, where Lu=the luminescence intensity in the presence of the compound (all percent activities below zero were shown zero in the table). The values of % activity versus a series of compound concentrations were then plotted using non-linear regression analysis of Sigmoidal dose-response curve generated with the equation Y=B+(T−B)/1+10^((Log EC50−X)×Hill Slope), where Y=percent activity, B=minimum percent activity, T=maximum percent activity, X=logarithm of compound and Hill Slope=slope factor or Hill coefficient. The IC50 value was determined by the concentration causing a half-maximal percent activity.

[2] = test system: EML4-ALK-BAF3 cell line xenograft; assay type: in vivo; conditions: 40 mg/kg oral gavage once daily
Text: A representative protocol for the in vivo experiment is as followed to establish the subcutaneous EML4-ALK-BAF3 cell line xenograft model in nude mice and to evaluate the in vivo therapeutic efficacy of the compounds: Animals: Male Balb/c nude mice (6˜8 weeks old) were obtained from SLAC Laboratory Animal, Shanghai, China. Animals were maintained under SPF conditions in sterile filter top cages and housed on HEPA-filtered ventilated racks. Animals received sterile rodent chow and water ad libitum. Cell line: BAF3-EML4-ALK stable cell line, the BAF3 cell which could expressed fusion oncogene EML4-ALK. S.c. Xenograft Models in Athymic Mice: Cells for implantation into athymic mice were harvested and pelleted by centrifugation at 1200 r/min for 5 min. Cells were washed once and resuspended in sterile PBS buffer with 5×10^6 in 200 μl. Then cells were implanted s.c. into the right scapular region of each mouse and allowed to grow to 200˜300 mm^3 before the administration of compound. Preparation of the Dose Formulation: each compound was suspensioned in 0.5% CMC-Na. Randomization: When tumor volumes approach 200˜300 mm^3, the mice will be randomized into 5 groups according to the tumor volume. The day will be denoted as D1 and the treatments will be started at this day. Administered: Dose will be administered with oral gavage needle once daily for number of days. Treatment of compounds administered in 0.5% CMC-Na by p.o. gavage was initiated when tumors were 200˜300 mm^3 in volume. Observations: After inoculation, the animals will be checked daily for morbidity and mortality. At the time of routine monitoring, the animals will be checked for any effects of tumor growth and treatments on normal behavior such as mobility, body weight gain/loss (body weights will be measured twice weekly or every other day), eye/hair matting and any other abnormal effect. Death and observed clinical signs will be recorded on the basis of the numbers of animals within each subset. Tumor Size Measurements: Tumor volume was determined by measurement with electronic vernier calipers every 3 days and tumor volume was calculated as the product of its length×width^2×0.5. Effect studies: Tumor volume was expressed on indicated days as the mean tumor volume ±SD. […] Significant differences between the treated versus the control groups (p<0.05) were determined using t test. At study endpoint, after blood collection, mice were practiced euthanasia by cervical dislocation, the tumor tissue was collected first, then abdominal cavity was cut open, liver and spleen were excised, then weight after the gallblader was removed respectively. Organ weight and Organ/body weight ratios between the treated versus the control groups were compared. Ratios was calculated as follows: Ratios=Organ weight/(body weight-tumor weight). Both organ weight and Organ/body weight ratios were also expressed as mean±SD, and significant differences between the treated versus the control groups (p<0.05) were determined using t test.

[3] = ALK kinase assay, read-out: ALK (IC50 grading)

GI50 [1] [nM]	IC50 (ALK kinase; [3]) [nM]	liver weight at the end of the study ([2]; control group 1.523) [gram]	IC50 (ALK kinase; read-out: IC50 in the ALK kinase assay) [nM]	SMILES	Tumor growth inhibition (TGI, %) ([2]; Table B, day 4) [%]	Tumor growth inhibition (TGI, %) ([2]; Table B, day 7) [%]	Tumor growth inhibition (TGI, %) ([2]; Table B, day 9) [%]	Tumor growth inhibition (TGI, %) ([2]; Table C, day 2) [%]	Tumor growth inhibition (TGI, %) ([2]; Table C, day 5) [%]	Tumor growth inhibition (TGI, %) ([2]; Table C, day 8) [%]	Tumor growth inhibition (TGI, %) ([2]; Table C, day 11) [%]	Tumor growth inhibition (TGI, %) ([2]; Table C, day 14) [%]
≤ 100	≤ 100	1.318		CC(=O)Nc1ncc(-c2cnn(C3CCNCC3)c2)cc1O[C@H](C)c1c(Cl)ccc(F)c1Cl [Compound 18, (R)—N-(3-(1-(2,6-dichloro-3-fluorophenyl)ethoxy)-5-(1-(piperidin-4-yl)-1H-pyrazol-4-yl)pyridin-2-yl)acetamide]	24.11	38.91	39.08					
≤ 100	≤ 100		2.6	[2H]C([2H])([2H])N1CCC(n2cc(-c3cnc(N)c(O[C@H](C)c4c(Cl)ccc(F)c4Cl)c3)cn2)CC1 [Compound 20, (R)-3-(1-(2,6-dichloro-3-fluorophenyl)ethoxy)-5-(1-(1-d3-methylpiperidin-4-yl)-1H-pyrazol-4-yl)pyridin-2-amine]				29.80	58.20	71.73	90.29	92.09
